Values quoted from earlier work as cited in patent US20250235469A1, “Synergistic combinations of Finasteride, Dutasteride, and Minoxidil” (priority 2024, published 2025).

Assays:
DHT levels = conditions: 5 mg daily dose; 2004 study
[1] = target: T1, 5α-reductase type 1 isoenzyme (Homo sapiens, UniProt P18405)
T1 sequence (P18405 1-259): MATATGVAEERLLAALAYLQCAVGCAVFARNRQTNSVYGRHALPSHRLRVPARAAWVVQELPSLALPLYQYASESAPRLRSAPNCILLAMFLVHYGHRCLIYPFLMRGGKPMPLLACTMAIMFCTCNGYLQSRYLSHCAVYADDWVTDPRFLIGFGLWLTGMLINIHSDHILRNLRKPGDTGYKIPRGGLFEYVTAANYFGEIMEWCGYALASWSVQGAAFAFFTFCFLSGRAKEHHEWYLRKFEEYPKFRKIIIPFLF

[2] = in vivo
[3] = target: T2, 5α-reductase type 2 isoenzyme (Homo sapiens, UniProt P31213)
T2 sequence (P31213 1-254): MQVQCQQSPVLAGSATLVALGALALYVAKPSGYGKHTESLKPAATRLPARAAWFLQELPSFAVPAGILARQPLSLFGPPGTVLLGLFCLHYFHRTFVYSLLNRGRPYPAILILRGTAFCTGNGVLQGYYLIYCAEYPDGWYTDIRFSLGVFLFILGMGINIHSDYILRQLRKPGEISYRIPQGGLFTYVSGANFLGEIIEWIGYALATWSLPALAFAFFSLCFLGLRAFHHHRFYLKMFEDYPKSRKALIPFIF

Q: With `C[C@]12C=CC(=O)N[C@@H]1CC[C@@H]1[C@@H]2CC[C@]2(C)[C@@H](C(=O)Nc3cc(C(F)(F)F)ccc3C(F)(F)F)CC[C@@H]12` [dutasteride, N-[2,5-bis(trifluoromethyl)phenyl]-3-oxo-4-aza-5α-androst-1-ene-17β-carboxamide] as the molecule, how does the “reduced DHT levels” value (DHT levels) read?
A: Its value is 98.4%.

Q: What about the “inhibition of type 1 isoenzyme of 5α-reductase” value [1] of the same molecule?
A: Its value is “inhibits both the types 1 and 2 isoenzymes”.

Q: What about the “increase in hair count” value (hair count; men, 2006 study, dutasteride compared to finasteride) of the same molecule?
A: Its value is “higher increase in hair count”.

Q: And the half-life [2]?
A: Its half-life is “several months”.

Q: What about the “inhibition of type 2 isoenzyme of 5α-reductase” value [3] of the same molecule?
A: Its value is “inhibits both the types 1 and 2 isoenzymes”.

Q: For `CC(C)(C)NC(=O)[C@H]1CC[C@H]2[C@@H]3CC[C@H]4NC(=O)C=C[C@]4(C)[C@H]3CC[C@]12C` [finasteride, 17β-(N-tert-butylcarbamoyl)-4-aza-5α-androst-1-en-3-one], which “reduced DHT levels” value (DHT levels) is on record?
A: Its value is 70.8%.

Q: And the “hair count and hair loss in users” value (hair count; studies of finasteride users)?
A: The value was “both an increase in hair count and a reduction in hair loss”.

Q: And the half-life [2]?
A: The half-life was “only a few hours”.

Q: And the “inhibition of type 2 isoenzyme of 5α-reductase” value [3]?
A: Its value is “only inhibits the type 2 isoenzyme”.
